Data as given in patent US10004815B2, “Near-infrared quenching group” (priority 2013, dated 2018).

Legend:
Assay type in all cases: physicochemical
[1] = Absorption spectrum measurement; settings: for Λabs. max: 0.1% DMSO as cosolvent; for maximum absorption wavelength: PBS (1% DMSO)
Method: The absorption spectrum of a […] PBS solution of comparative compound 2 (containing 0.1% DMSO as cosolvent) was measured.
The maximum absorption wavelength of compound 1 was 763 nm, and the maximum absorption wavelength of compound 4 was 732 nm.

[2] = Fluorescence spectrum / quantum efficiency of fluorescence (ICG in DMSO as standard); settings: both water and organic solvents; excitation 760 nm
Method: The absorption spectra and fluorescence spectra (excitation wavelength 760 nm) of […] PBS, methanol, DMF, and chloroform solutions of comparative compound 1 (each containing 0.1% DMSO as cosolvent) were measured.

[3] = Changes over time in the absorption spectrum in water (PBS); settings: PBS solution, 0.1% DMSO as cosolvent

## Cc1ccccc1C1=C2C=C/C(=[N+]3/CCc4ccccc43)C=C2[Si](C)(C)c2cc(N3CCc4ccccc43)ccc21 [comparative compound 1, 2-Me-Si-QSY21]
[1]
  absorption spectrum reached up to: up to 850 nm
[1]; Chloroform
  Λabs. max: 790 nm
[1]; DMF
  Λabs. max: 790 nm
[1]; MeOH
  Λabs. max: 779 nm
[1]; PBS
  Λabs. max: 764 nm
[2]
  fluorescence quantum yield: ≤ 0.001

## Cc1ccccc1C1=C2C=C/C(=[N+]3/CCc4cc(S(=O)(=O)O)ccc43)C=C2[Si](C)(C)c2cc(N3CCc4cc(S(=O)(=O)O)ccc43)ccc21 [comparative compound 2, 2-Me-SO3H—Si-QSY21]
[3]
  changes over time in absorption in water (stability in water): a gradual decrease in absorption was observed in water
[1]; PBS solution, 0.1% DMSO
  change in absorption wavelength due to introduction of a sulfone group: no change in absorption wavelength

## Cc1cccc(C)c1C1=C2C=C/C(=[N+]3/CCc4cc(S(=O)(=O)O)ccc43)C=C2[Si](C)(C)c2cc(N3CCc4cc(S(=O)(=O)O)ccc43)ccc21 [compound 1, 2,6-diMe-SO3H Indoline-Si-QSY21]
[3]
  changes over time in absorption in water (stability in water): no decrease in absorption in water was observed
[1]
  maximum absorption wavelength: 763 nm

## COc1cccc(OC)c1C1=C2C=C/C(=[N+]3/CCc4cc(S(=O)(=O)O)ccc43)C=C2[Si](C)(C)c2cc(N3CCc4cc(S(=O)(=O)O)ccc43)ccc21 [compound 2, 2,6-diOMe-SO3H Indoline-Si-QSY21]
[3]
  changes over time in absorption in water (stability in water): no decrease in absorption in water was observed

## Cc1cccc(C)c1C1=C2C=C/C(=[N+]3/CCCc4cc(S(=O)(=O)O)ccc43)C=C2[Si](C)(C)c2cc(N3CCCc4cc(S(=O)(=O)O)ccc43)ccc21 [compound 4, 2,6-diMe-SO3H Tetrahydroquinoline-Si-QSY21]
[1]
  maximum absorption wavelength: 732 nm
